Results taken from patent US5466675A, “Immunological activity of rhamnolipids” (priority 1992, dated 1995).
Where two headings read alike, the source gives them in different places.

Key:
[1] = system: coxsackie B2 virus; assay: effect on viruses, coxsackie B2; assay type: cell-based; conditions: concentrations ≤100 ug/ml
Description: Tests were performed according to D. A. Vanden Berghe et al., Inst. Pasteur 84,101 (1986). Rhamnolipid (II) was toxic for VERO cells in concentrations ≥200 ug/ml, and cytotoxic on MT4 cells in concentrations >169.40 ug/ml.

[2] = system: mice C57B1/6; assay: range-finding study phase (five doses per five days, one dose per day)
[3] = system: acetylcholinesterase; assay: enzyme inhibition, acetylcholinesterase; assay type: biochemical
Description: (§1) Rhamnolipid (II) was tested in vitro against a wide array of enzymes.
(§2) The following enzymes were inhibited at the various rhamnolipid concentrations indicated:
(§3) All enzyme assays were done spectrophotometrically by computer linked automatic microplate reader (Labsystem Multiskan) and Diode Array spectrophotometer (Perkin Elmer).

[4] = system: mice C57B1/6; assay: range-finding study phase (five doses per day)
[5] = system: lipoxygenase; assay: enzyme inhibition, lipoxygenase; assay type: biochemical
Description: as §1, §2, §3

[6] = system: Candida albicans; assay: minimum inhibitory concentration, Candida albicans; assay type: cell-based; conditions: in tested medium
From the text: The Minimum inhibitory concentration (MIC) of Rhamnolipid II for Candida albicans, Escherichia coli, Staphylococcus aureus and Pseudomonas aeruginosa was >0.5% in tested medium.

[7] = system: Dermatitis circumscripta unilocularis; assay: clinical treatment of dermatitis circumscripta unilocularis; assay type: in vivo, human; conditions: one patient
Description: (§4) 17 patients, 11 men and 6 women, were treated with rhamnolipid (II). Among these, 12 patients were suffering from Psoriasis, 2 from Neurodermitis, 1 from Lichen ruber planus, 1 from Serborhoic dermatitis and one from Dermatitis circumscripta unilocularis eczematoides.

[8] = in vitro; conditions: human, mt4 cells
[9] = system: Lichen ruber planus; assay: clinical treatment of lichen ruber planus; assay type: in vivo, human; conditions: one patient
Description: as §4

[10] = system: T-cells isolated from mouse thymus; assay: T-lymphocyte proliferation + Con A; assay type: cell-based
Description: Procedure: T-cells were isolated from mouse thymus using conventional procedures, and suspended in DMEM. 5×10^6 cells/ml are incubated overnight at 37° C. in the presence of 3 ug/ml Con A to assess stimulation (positive score, related to 10 U/ml rat interleukin-2) or suppression (negative score, related to control) of cell proliferation. Test substance was evaluated under these conditions at 10, 1, 0.1 and 0.01 uM. After overnight incubation, 2 uCi [^3 H] thymidine is added to each well. Cells were harvested after an additional 48 hour incubation, and thymidine incorporation assessed by liquid scintillation counting.

[11] = system: A431 human epidermal cells; assay: A431 cell DNA synthesis ([3H] thymidine incorporation); assay type: cell-based; conditions: for inhibition of DNA synthesis: absence of serum growth factors; for activity at 1 µg/mL / activity at 10 µg/mL / activity at 100 µg/mL: Homo sapiens, read-out: DNA synthesis, % placebo
Description: A431 cells were cultured for 24 h in microtitter platesm, with serum free medium or in the presence of serum with rhamnolipid. Then, [^3 H] thymidine was added and cells were harvested after 48 h; [^3 H] incorporated into DNA was determined.

[12] = system: Candida albicans; assay: immunorestoration: immunosuppression with cyclophosphamide and infection with Candida albicans; assay type: in vivo, mouse (ICR, female); conditions: for Survivor No.: n = 10
From the text: […] One day after the last immunosuppressant dose, the mice were challenged with a suspension of C. albicans sufficient to result in 90 to 100 percent mortality within 10 days in the vehicle treated control group. A greater than 30 percent survival for any drug treated group is considered significant, and possibly a result of immunorestorant activity.

[13] = system: mice C57B1/6; conditions: mouse, in vivo
Description: Tests were performed on mice C57B1/6, Animal source: Bantin and Kingman. This was done following the procedures described elsewhere in Technical Report Series, National Toxicology Program, U.S. Department of Health and Human services.
Examinations were made in all tests on the following tissues from each mouse necropsied: bone (femur), bone marrow (femur)-slide only, brain, colon, duodenum, testes, heart, kidneys, liver, lungs (infuse with formalin), pancreas, spleen, muscle, adrenal nodes, uterus, gastric.

[14] = five doses per five days, intraperitoneal
[15] = five doses per day, intraperitoneal
[16] = IP 0.1 × 3 mg/kg + cyclophosphamide
[17] = IP 1 × 3 mg/kg + cyclophosphamide
[18] = IP 10 × 3 mg/kg + cyclophosphamide
[19] = IP 100 × 3 mg/kg + cyclophosphamide

Compound: CCCCCCCC(CC(=O)O)OC(=O)CC(CCCCCCC)O[C@@H]1O[C@@H](C)[C@H](O)[C@@H](O)[C@H]1O[C@@H]1O[C@@H](C)[C@H](O)[C@@H](O)[C@H]1O (stereo partly drawn) [Rhamnolipid (II), (alpha-L-rhamnopyranosyl-(1,2)alpha-L-rhamnopyranosyl)-3-hydroxydecanoyl-3-hydroxydecanoic acid]
- antiviral activity [1]: no activity
- lower bracket dose (LBD) [2, 14]: 45 mg/kg
- single dose toxicity [2, 14]: 5 mg/kg
- upper bracket dose (UBD) [2, 14]: 125 mg/kg
- basophiles ([2]; fourth day after application): significant increase
- eosinophiles ([2]; fourth day after application): significant increase
- lymphocytes ([2]; fourth day after application): significant decrease
- neutrophils ([2]; fourth day after application): significant increase
- behavior and appearance of treated mice ([2]; observation period): no changes
- concentration at which the enzyme was inhibited [3]: 1 mg/mL
- five dose toxicity [4, 15]: 5 mg/kg
- lower bracket dose (LBD) [4, 15]: 45 mg/kg
- upper bracket dose (UBD) [4, 15]: 125 mg/kg
- difference between rhamnolipid (II) and control ([4]; fourth day after application): no statistical differences
- concentration at which the enzyme was inhibited [5]: 10 µg/mL
- Minimum inhibitory concentration (MIC) [6]: > 0.5%
- cure [7]: completely cured
- MCC [8]: > 169 µg/mL
- cure [9]: completely cured
- T-cell proliferation ([10]; 10 uM, with Con A): inhibited
- in vitro T cell immunosuppression activity ([10]; 10 uM, with ConA): T cell immunosuppression activity
- activation at 0.001 µM ([10]; Mus musculus, T-cell, read-out: % Stimulation (+)/Suppression (-)): 4%
- activation at 0.01 µM ([10]; Mus musculus, T-cell, 0.01 uM, ConA, 0.5% DMSO, read-out: % Stimulation (+)/Suppression (-)): 7%
- activation at 0.1 µM ([10]; Mus musculus, T-cell, 0.1 uM, ConA, 0.5% DMSO, read-out: % Stimulation (+)/Suppression (-)): 7%
- activation at 1 µM ([10]; Mus musculus, T-cell, 1 uM, ConA, 0.5% DMSO, read-out: % Stimulation (+)/Suppression (-)): 3%
- activation at 10 µM ([10]; Mus musculus, T-cell, 10 uM, ConA, 0.5% DMSO, read-out: % Stimulation (+)/Suppression (-)): -43%
- inhibition of DNA synthesis ([11]; 0.1 mg/ml): completely inhibited
- inhibition of DNA synthesis ([11]; 0.1 mg/ml, listed as rhamnolipid II): total inhibition
- DNA synthesis [3H] Thy inc. ([11]; 10 (v/v) % FCS, 0.001 mg/ml): 35400 +/- 2786 dpm
- DNA synthesis [3H] Thy inc. ([11]; 10 (v/v) % FCS, 0.01 mg/ml): 31273 +/- 2028 dpm
- DNA synthesis [3H] Thy inc. ([11]; 10 (v/v) % FCS, 0.1 mg/ml): 37055 +/- 1881 dpm
- activity at 1 µg/mL ([11]; A-431, 10 (v/v) % FCS, 0.001 mg/ml): 106 ± 8%
- activity at 10 µg/mL ([11]; A-431, 10 (v/v) % FCS, 0.01 mg/ml): 94 ± 6%
- activity at 100 µg/mL ([11]; A-431, 10 (v/v) % FCS, 0.1 mg/ml): 111 ± 6%
- activity at 1 µg/mL ([11]; A-431, serum free medium, 0.001 mg/ml): 91 ± 32%
- activity at 10 µg/mL ([11]; A-431, serum free medium, 0.01 mg/ml): 64 ± 19%
- activity at 100 µg/mL ([11]; A-431, serum free medium, 0.1 mg/ml): 2 ± 2%
- DNA synthesis [3H] Thy inc. ([11]; serum free medium, 0.001 mg/ml): 6935 +/- 2432 dpm
- DNA synthesis [3H] Thy inc. ([11]; serum free medium, 0.01 mg/ml): 4885 +/- 1480 dpm
- DNA synthesis [3H] Thy inc. ([11]; serum free medium, 0.1 mg/ml): 134 +/- 129 dpm
- Death, days post-inoculum 0-1 [12, 16]: 2 #/10 Mice
- Death, days post-inoculum 2-3 [12, 16]: 1 #/10 Mice
- Death, days post-inoculum 4-6 [12, 16]: 1 #/10 Mice
- Death, days post-inoculum 7-9 [12, 16]: 2 #/10 Mice
- Response Inc. % [12, 16]: 20%
- Survivor No. [12, 16]: 4
- Death, days post-inoculum 0-1 [12, 17]: 2 #/10 Mice
- Death, days post-inoculum 2-3 [12, 17]: 2 #/10 Mice
- Death, days post-inoculum 4-6 [12, 17]: 1 #/10 Mice
- Death, days post-inoculum 7-9 [12, 17]: 1 #/10 Mice
- Response Inc. % [12, 17]: 20%
- Survivor No. [12, 17]: 4
- Death, days post-inoculum 0-1 [12, 18]: 2 #/10 Mice
- Death, days post-inoculum 2-3 [12, 18]: 1 #/10 Mice
- Death, days post-inoculum 4-6 [12, 18]: 1 #/10 Mice
- Death, days post-inoculum 7-9 [12, 18]: 0 #/10 Mice
- Response Inc. % [12, 18]: 40%
- Survivor No. [12, 18]: 6
- Death, days post-inoculum 0-1 [12, 19]: 1 #/10 Mice
- Death, days post-inoculum 2-3 [12, 19]: 1 #/10 Mice
- Death, days post-inoculum 4-6 [12, 19]: 1 #/10 Mice
- Death, days post-inoculum 7-9 [12, 19]: 0 #/10 Mice
- Response Inc. % [12, 19]: 50%
- Survivor No. [12, 19]: 7
- in vivo immunorestoration activity ([12]; summary, no dose stated): very strong
- pathohistological changes [13]: none of the regressive-progressive or inflammatory type of changes were detected
